Test results: US20240368163A1, “COMPOUNDS AND METHODS FOR MODULATING SPLICING” (REMIX THERAPEUTICS INC., priority 2021, published 2024)
Read-outs that look alike come from different tables or passages of the source.

Assays:
Format in all cases: cell-based, human
Target C [1] = experiment: Splicing RT-qPCR panel, Target C canonical junction (CJ) mRNA; settings: read-out: Target C IC50 (decrease in CJ mRNA levels)
Protocol: (§1) Compounds described herein were used to modulate RNA transcript abundance in cells. The expression of a target mRNA was measured by detecting the formation of an exon-exon junction in the canonical transcript (CJ). A compound mediated exon-inclusion event was detected by observing an increase in formation of a new junction with an alternative exon (AJ). Real-time qPCR assays were used to detect these splicing switches and interrogate the potency of various compounds towards different target genes. A high-throughput real time quantitative PCR (RT-qPCR) assay was developed to measure these two isoforms of the mRNA (CJ and AJ) for exemplary genes, such as HTT, SMN2, and MYB, together with a control housekeeping gene, GAPDH or GUSB or PPIA, used for normalization. Briefly, the A673 or K562 cell line was treated with various compounds described herein (e.g., compounds of Formula (I)). After treatment, the levels of the HTT, MYB, or SMN2 mRNA targets were determined from each sample of cell lysate by cDNA synthesis followed by qPCR.
(§2) The A673 cell line was cultured in DMEM with 10% FBS. Cells were diluted with full growth media and plated in a 96-well plate (15,000 cells in 100 ul media per well). The plate was incubated at 37° C. with 5% CO2 for 24 hours to allow cells to adhere. An 11-point 3-fold serial dilution of the compounds was made in DMSO then diluted in media in an intermediate plate. Compounds were transferred from the intermediate plate to the cell plate with the top dose at a final concentration of 10 uM in the well. Final DMSO concentration was kept at or below 0.25%. The cell plate was returned to the incubator at 37° C. with 5% CO2 for an additional 24 hours.
(§3) The K562 cell line was cultured in IMDM with 10% FBS. For K562, cells were diluted with full growth media and plated in either a 96-well plate (50,000 cells in 50 uL media per well) or a 384-well plate (8,000-40,000 cells in 45 uL media per well). An 11-point 3-fold serial dilution of the compounds were made in DMSO then diluted in media in an intermediate plate. Compound was transferred from the intermediate plate to the cell plate with the top dose at a final concentration of 10 uM in the well. Final DMSO concentration was kept at or below 0.25%. Final volume was 100 uL for 96-well plate and 50 uL for 384-well plate. The cell plate was then placed in an incubator at 37° C. with 5% CO2 for 24 hours.
(§4) The cells were then gently washed with 50 uL-100 uL cold PBS before proceeding to addition of lysis buffer. 30 uL-50 μL of room temperature lysis buffer with DNAse I (and optionally RNAsin) was added to each well. Cells were shaken/mixed thoroughly at room temperature for 5-10 minutes for lysis to take place and then 3 uL-5 μL of room temperature stop solution was added and wells were shaken/mixed again. After 2-5 minutes, the cell lysate plate was transferred to ice for RT-qPCR reaction setup. The lysates could also be frozen at −80° C. for later use.
(§5) In some cases, a direct lysis buffer was used. An appropriate volume of 3× lysis buffer (10 mM Tris, 150 mM NaCl, 1.5%-2.5% Igepal and 0.1-1 U/uL RNAsin, pH 7.4) was directly added to either K562 or A673 cells in media and mixed by pipetting 3 times. The plates were then incubated at room temperature with shaking/rocking for 20-50 minutes to allow for lysis to take place. After this time, the cell lysate plate was transferred to ice to set up for the RT-qPCR reactions. The lysates could also be frozen at −80° C. for later use.
(§6) To set up 10 uL RT-qPCR reactions, cell lysates were transferred to 384-well qPCR plates containing the master mix according to the table below. The plates were sealed, gently vortexed, and spun down before the run. The volumes were adjusted accordingly in some instances where the reaction was carried in 20 μL. The table below summarizes the components of the RT-qPCR reactions:
(§7) The RT-qPCR reaction was performed using a QuantStudio (ThermoFisher) under the following fast cycling conditions. […]

HTT [2] = experiment: Splicing RT-qPCR assay, HTT mRNA canonical junction (CJ) and alternative junction (AJ); settings: for AC50: increase in AJ mRNA
Protocol: as §1, §2, §3, §4, §5, §6, §7

MYB [3] = experiment: HiBiT protein abundance assay, MYB; settings: modified K562 cells
Protocol: (§8) Compounds described herein were used to screen for effects on quantitative protein abundance using a HiBit assay system (Promega). Quantitative protein abundance was determined by measuring the protein levels of HiBit-tagged protein targets expressed in cell culture via luminescence using the Nano-Glo HiBiT Lytic Detection System, which uses a split complementation assay format to reconstitute NanoBiT enzyme to generate a luminescent signal. A protein abundance assay was developed such that endogenous protein targets could be modified with the HiBiT peptide tag and their abundance could be assessed after compound treatment. Briefly, K562 cell lines containing a HiBiT-modification were treated with various compounds described herein (e.g., compounds of Formulas (I), (II), or (III)). After treatment for 24 hours, the protein abundance of a specific target was determined by measuring luminescence.
(§9) Cells were maintained in IMIDM with 10% FBS. Before the assay, cells were diluted with […] growth media (IMIDM+[…] media) and were seeded in a 384-well plate at a density of 10000 cells/well (for each cell line listed in Table 12). Each compound was prepared as a 10-point 3-fold serial dilution in DMSO with the top dose at a final concentration of 10 μM in the well. Unmodified K562 cells were added at the previously specified density with DMSO to serve as an assay baseline and positive control (PC) and DMSO only with the respective modified cell lines was added to the negative control (NC) columns. Final DMSO concentration was kept at or below 0.25%. Treated cell plates were placed in an incubator at 37° C. with 5% CO2 for 24 hours. After 24 hours, 25 μL of Complete HiBit Lytic reagent was added to each well at room temperature (e.g. one plate requiring 10 mL Lytic Buffer, 100 μL LgBiT Protein, 200 μL Lytic Substrate), shaken for 5 minutes at 600 RPM, then left to sit for 10 minutes for signal to stabilize before reading on a Spark Cyto plate reader (Tecan) with a 500 ms measurement time.
(§10) To determine compound effects on protein abundance of each target in Table 12, the percent response for each respective cell line was calculated at each compound concentration as follows:
(§11) For the normalized response at each concentration, a four-parameter logistical regression was fit to the data and the response was interpolated at the 50% value to determine a concentration for protein abundance at 50% (IC50) the untreated control.

SMN2 = experiment: Splicing RT-qPCR panel, SMN2 canonical junction (CJ) mRNA; settings: read-out: SMN2 IC50 (decrease in CJ mRNA levels)
Protocol: as §1, §2, §3, §4, §5, §6, §7

HTT [4] = experiment: HiBiT protein abundance assay, HTT; settings: modified K562 cells
Protocol: as §8, §9, §10, §11

MYB [5] = experiment: Splicing RT-qPCR assay, MYB mRNA canonical junction (CJ) and alternative junction (AJ); settings: for AC50: increase in AJ mRNA
Protocol: as §1, §2, §3, §4, §5, §6, §7

Target C [6] = experiment: HiBiT protein abundance assay, Target C; settings: Homo sapiens, K562, 24 h, modified K562 cells
Protocol: • Promega Nano-Glo HiBiT Lytic Detection System (cat #N3030) • Coming 384-well TC-treated microplates (cat #3570) • Synthego Engineered Cells Knock-In Clones
as §9, §10, §11

[7] = Homo sapiens, RT-qPCR panel, canonical junction mRNA, compound concentration having 50% response in CJ decrease
[8] = Homo sapiens, 24 h, decrease in CJ mRNA, A673 or K562 cells, 24 hours treatment, RT-qPCR, read-out: HTT CJ IC50
[9] = Homo sapiens, 24 h, A673 or K562 cells, 24 hours treatment, RT-qPCR
[10] = Homo sapiens, RT-qPCR panel, canonical junction mRNA, compound concentration having 50% response in CJ decrease, read-out: HTT IC50 (decrease in CJ mRNA levels)
[11] = Homo sapiens, K562, 24 h, Table 13A
[12] = Homo sapiens, 24 h, decrease in CJ mRNA, A673 or K562 cells, 24 hours treatment, RT-qPCR, read-out: MYB CJ IC50
[13] = Homo sapiens, RT-qPCR panel, canonical junction mRNA, compound concentration having 50% response in CJ decrease, read-out: MYB IC50 (decrease in CJ mRNA levels)
[14] = Homo sapiens, gene panel, CJ qPCR, protocol of Example 142
[15] = Homo sapiens, K562, 24 h, Table 13B
[16] = RT-qPCR panel, canonical junction mRNA, compound concentration having 50% response in CJ decrease

Structure (SMILES)	IC50 (Target C [1]; [7])	IC50 (HTT [2]; [8])	AC50 (HTT [2]; [9])	IC50 (HTT [2]; [10])	IC50 (MYB [3]; [11])	IC50 (SMN2; [7])	IC50 (HTT [4]; [11])	IC50 (MYB [5]; [12])	AC50 (MYB [5]; [9])	IC50 (MYB [5]; [13])	IC50 (Target C [6]; Table 13A)	other results
CN(c1ccc(-c2ccc(-c3cnnc(O)c3)c3scnc23)nn1)C1CC(C)(C)NC(C)(C)C1 [Compound 234]	> 10 µM	> 10 µM	> 10 µM	> 10 µM	1 to 10 µM	0.1 to 1 µM	1 to 10 µM	> 10 µM	> 10 µM	> 10 µM	> 10 µM	–
Cc1ncc(-c2ccc(-c3ccc(N(C)C4CC(C)(C)NC(C)(C)C4)nc3)c3ncsc23)o1 [Compound 201]	1 to 10 µM	1 to 10 µM	1 to 10 µM	1 to 10 µM	1 to 10 µM	0.1 to 1 µM	1 to 10 µM	1 to 10 µM	1 to 10 µM	1 to 10 µM	> 10 µM	–
COc1cc(-c2ccc(N(C)[C@@H]3C[C@H]4CC[C@@H](C3)N4)nn2)ncc1-c1cn[nH]c1 [Compound 921]	–	–	–	–	–	–	–	–	–	–	–	IC50 (Target C [1]; [14]): > 10 µM; IC50 (HTT [2]; Homo sapiens, gene panel, CJ qPCR, protocol of Example 142, read-out: HTT IC50 (decrease in CJ mRNA levels)): > 10 µM; IC50 (MYB [3]; [15]): 1 to 10 µM; IC50 (SMN2; [14]): 1 to 10 µM; IC50 (HTT [4]; [15]): > 10 µM; IC50 (MYB [5]; Homo sapiens, gene panel, CJ qPCR, protocol of Example 142, read-out: MYB IC50 (decrease in CJ mRNA levels)): > 10 µM; IC50 (Target C [6]; Table 13B): > 10 µM
c1cnn(-c2ccc(-c3cnc(N4CCNC(C5CC5)C4)nn3)c3cn[nH]c23)c1 (centres unmarked) [Compound 555]	–	–	–	–	–	–	–	–	–	–	–	IC50 (Target C [1]; [16]): 0.1 to 1 µM; IC50 (HTT [2]; RT-qPCR panel, canonical junction mRNA, compound concentration having 50% response in CJ decrease, read-out: HTT IC50 (decrease in CJ mRNA levels)): < 0.1 µM; IC50 (MYB [3]; Table 13A, 24 hours): 1 to 10 µM; IC50 (SMN2; [16]): 0.1 to 1 µM; IC50 (HTT [4]; Table 13A, 24 hours): 0.1 to 1 µM; IC50 (MYB [5]; RT-qPCR panel, canonical junction mRNA, compound concentration having 50% response in CJ decrease, read-out: MYB IC50 (decrease in CJ mRNA levels)): 1 to 10 µM
c1cnn(-c2ccc(-c3cnc(O[C@H]4C[C@H]5COC[C@@H](C4)N5)nn3)c3cn[nH]c23)c1 [Compound 585]	> 10 µM	–	–	> 10 µM	–	> 10 µM	–	–	–	> 10 µM	–	–
CN(c1ccc(-c2ccc(-n3cccn3)c3nn[nH]c23)nn1)[C@@H]1C[C@H]2CC[C@@H](C1)N2 [Compound 119]	0.1 to 1 µM	0.1 to 1 µM	1 to 10 µM	0.1 to 1 µM	–	0.1 to 1 µM	–	0.1 to 1 µM	0.1 to 1 µM	0.1 to 1 µM	–	–
